Reference: patent US10835542B2, “9-aminomethyl minocycline compounds and use thereof in treating community-acquired bacterial pneumonia (CABP)” (Paratek Pharmaceuticals, Inc., priority 2016, dated 2020)
Values joined by “and” are separate entries in the source; they are usually repeats but may differ in a detail not shown here. Equal entries are not always repeated. Where two headings read alike, the source gives them in different places.

Legend:
[1] = Food effect on plasma PK of a single 300 mg oral dose, healthy volunteers (4-period crossover); assay type: in vivo, human
[2] = test system: Escherichia coli; test: Clinical success at PTE by baseline pathogen, microITT; assay type: in vivo, human; conditions: N1 = 6 (Compound 1), 7 (Moxifloxacin)
[3] = test system: Klebsiella pneumoniae; test: as above; assay type: in vivo, human; conditions: N1 = 13 (Compound 1), 13 (Moxifloxacin)
[4] = Absolute bioavailability of the tablet formulation (tosylate salt); conditions: phase 3 tablet formulation (tosylate salt), fasting conditions; listed as omadacycline
[5] = test system: Staphylococcus aureus; assay type: in vivo, human; conditions: PTE, microITT
[6] = test system: Community-Acquired Bacterial Pneumonia (CABP); test: Phase 3 CABP study: Investigator's Assessment of Clinical Response at PTE; assay type: in vivo, human
[7] = test system: Haemophilus parainfluenzae; test: Clinical success at PTE by baseline pathogen, microITT; assay type: in vivo, human; conditions: N1 = 18 (Compound 1), 17 (Moxifloxacin)
[8] = test system: Mycoplasma pneumoniae; test: as above; assay type: in vivo, human; conditions: N1 = 70 (Compound 1), 57 (Moxifloxacin)
[9] = test system: Community-Acquired Bacterial Pneumonia (CABP); test: Phase 3 CABP study: Early Clinical Response (72-120 h after first dose); assay type: in vivo, human; conditions: ITT
[10] = test system: Chlamydophila pneumoniae; test: Clinical success at PTE by baseline pathogen, microITT; assay type: in vivo, human; conditions: N1 = 28 (Compound 1), 28 (Moxifloxacin)
[11] = Phase 1 multiple oral dose (300, 450, 600 mg) study: plasma PK, healthy adult subjects; conditions: for exposure (dose-normalized AUC0-24) as % of that predicted if perfectly dose-proportional: 300 mg to 600 mg; for AUC(0-t): human, in vivo, po
[12] = test system: Legionella pneumophila; assay type: in vivo, human; conditions: PTE, microITT; baseline pathogen Legionella pneumophila (culture, serology and/or urinary antigen); N1 = 37 (Compound 1), 37 (Moxifloxacin)
[13] = test system: Haemophilus influenzae; test: Clinical success at PTE by baseline pathogen, microITT; assay type: in vivo, human; conditions: N1 = 32 (Compound 1), 16 (Moxifloxacin)
[14] = test system: Streptococcus pneumoniae; assay type: in vivo, human; conditions: PTE, microITT
[15] = test system: Moraxella catarrhalis; test: Clinical success at PTE by baseline pathogen, microITT; assay type: in vivo, human; conditions: N1 = 4 (Compound 1), 1 (Moxifloxacin)
[16] = CE-PTE, PORT Risk Class II as randomized
[17] = CE-PTE, PORT Risk Class III as randomized
[18] = CE-PTE, PORT Risk Class III/IV as randomized
[19] = CE-PTE, PORT Risk Class IV as randomized
[20] = CE-PTE, actual PORT Risk Class II
[21] = CE-PTE, actual PORT Risk Class III
[22] = CE-PTE, actual PORT Risk Class III/IV
[23] = CE-PTE, actual PORT Risk Class IV
[24] = ITT, PORT Risk Class II as randomized
[25] = ITT, PORT Risk Class III as randomized
[26] = ITT, PORT Risk Class III/IV as randomized
[27] = ITT, PORT Risk Class IV as randomized
[28] = ITT, actual PORT Risk Class III
[29] = ITT, actual PORT Risk Class III/IV

## CN(C)c1cc(CNCC(C)(C)C)c(O)c2c1C[C@H]1C[C@H]3[C@H](N(C)C)C(O)=C(C(N)=O)C(=O)[C@@]3(O)C(O)=C1C2=O [Compound 1, 9-[(2,2-dimethyl-propylamino)-methyl]-minocycline]
[1]; Treatment D
  between-subject variability in systemic exposure (CV) for Cmax and AUC: 42.6-44.4%
[1]; Treatments A, B and C
  between-subject variability in systemic exposure (CV) for Cmax and AUC: 22.4-29.2%
[2]
  Clinical Success n (%): 4 (66.7) n (%)
[3]
  Clinical Success n (%): 10 (76.9) n (%)
[4]
  absolute bioavailability: 35%
[5]; Staphylococcus aureus MRSA, N1 = 0 (Compound 1), 1 (Moxifloxacin)
  Clinical Success n (%): 0 n (%)
[5]; Staphylococcus aureus MSSA, N1 = 11 (Compound 1), 10 (Moxifloxacin)
  Clinical Success n (%): 8 (72.7) n (%)
[5]; baseline pathogen Staphylococcus aureus, N1 = 11 (Compound 1), 11 (Moxifloxacin)
  Clinical Success n (%): 8 (72.7) n (%)
[6]; CE-PTE
  Difference (95% CI) in Overall Clinical Success rate at PTE, Compound 1 minus moxifloxacin: 2.5% and 2.5 (−1.7, 6.8) %
  Overall clinical response at PTE: Clinical Failure: 24 (7.1) n (%)
  Overall clinical response at PTE: Clinical Success: 316 (92.9) n (%)
[6]; [16]
  Clinical Failure at PTE: 3 (6.8) n (%)
  Clinical Success at PTE: 41 (93.2) n (%)
  Difference (95% CI) in clinical success at PTE: 1.5 (−11.2, 13.9)^[4] %
[6]; [17]
  Clinical Failure at PTE: 14 (6.5) n (%)
  Clinical Success at PTE: 202 (93.5) n (%)
  Difference (95% CI) in clinical success at PTE: 2.5 (−2.7, 7.8)^[4] %
[6]; [18]
  Clinical Failure at PTE: 21 (7.1) n (%)
  Clinical Success at PTE: 275 (92.9) n (%)
  Difference (95% CI) in clinical success at PTE: 2.7 (−1.9, 7.3)^[4] %
[6]; [19]
  Clinical Failure at PTE: 7 (8.8) n (%)
  Clinical Success at PTE: 73 (91.3) n (%)
  Difference (95% CI) in clinical success at PTE: 3.0 (−6.8, 12.8)^[4] %
[6]; [20]
  Clinical Failure at PTE: 2 (4.4) n (%)
  Clinical Success at PTE: 43 (95.6) n (%)
  Difference (95% CI) in clinical success at PTE: 5.8 (−6.1, 18.1)^[4] %
[6]; [21]
  Clinical Failure at PTE: 13 (6.4) n (%)
  Clinical Success at PTE: 191 (93.6) n (%)
  Difference (95% CI) in clinical success at PTE: 1.5 (−3.6, 6.9)^[4] %
[6]; [22]
  Clinical Failure at PTE: 22 (7.5) n (%)
  Clinical Success at PTE: 273 (92.5) n (%)
  Difference (95% CI) in clinical success at PTE: 2.0% and 2.0 (−2.6, 6.6)^[4] %
[6]; [23]
  Clinical Failure at PTE: 9 (9.9) n (%)
  Clinical Success at PTE: 82 (90.1) n (%)
  Difference (95% CI) in clinical success at PTE: 2.9 (−6.7, 12.5)^[4] %
[6]; ITT
  Difference (95% CI) in Overall Clinical Success rate at PTE, Compound 1 minus moxifloxacin: 2.5% and 2.5 (−2.4, 7.4) %
  Overall clinical response at PTE: Clinical Failure: 32 (8.3) n (%)
  Overall clinical response at PTE: Clinical Failure or Indeterminate: 48 (12.4) n (%)
  Overall clinical response at PTE: Clinical Success: 338 (87.6) n (%)
  Overall clinical response at PTE: Indeterminate: 16 (4.1) n (%)
[6]; [24]
  Clinical Failure at PTE: 6 (10.7) n (%)
  Clinical Failure or Indeterminate at PTE: 11 (19.6) n (%)
  Clinical Success at PTE: 45 (80.4) n (%)
  Difference (95% CI) in clinical success at PTE: −3.6 (−18.2, 11.0)^[4] %
  Indeterminate at PTE: 5 (8.9) n (%)
[6]; [25]
  Clinical Failure at PTE: 17 (7.1) n (%)
  Clinical Failure or Indeterminate at PTE: 24 (10.0) n (%)
  Clinical Success at PTE: 217 (90.0) n (%)
  Difference (95% CI) in clinical success at PTE: 3.4 (−2.4, 9.4)^[4] %
  Indeterminate at PTE: 7 (2.9) n (%)
[6]; [26]
  Clinical Failure at PTE: 26 (7.9) n (%)
  Clinical Failure or Indeterminate at PTE: 37 (11.2) n (%)
  Clinical Success at PTE: 293 (88.8) n (%)
  Difference (95% CI) in clinical success at PTE: 3.5 (−1.6, 8.7)^[4] %
  Indeterminate at PTE: 11 (3.3) n (%)
[6]; [27]
  Clinical Failure at PTE: 9 (10.1) n (%)
  Clinical Failure or Indeterminate at PTE: 13 (14.6) n (%)
  Clinical Success at PTE: 76 (85.4) n (%)
  Difference (95% CI) in clinical success at PTE: 3.4 (−7.5, 14.0)^[4] %
  Indeterminate at PTE: 4 (4.5) n (%)
[6]; ITT, actual PORT Risk Class II
  Clinical Failure at PTE: 5 (8.8) n (%)
  Clinical Failure or Indeterminate at PTE: 10 (17.5) n (%)
  Clinical Success at PTE: 47 (82.5) n (%)
  Difference (95% CI) in clinical success at PTE: −1.5 (−15.7, 12.8)^[4] %
  Indeterminate at PTE: 5 (8.8) n (%)
[6]; [28]
  Clinical Failure at PTE: 16 (7.0) n (%)
  Clinical Failure or Indeterminate at PTE: 21 (9.3) n (%)
  Clinical Success at PTE: 206 (90.7) n (%)
  Difference (95% CI) in clinical success at PTE: 2.8 (−3.0, 8.7)^[4] %
  Indeterminate at PTE: 5 (2.2) n (%)
[6]; [29]
  Clinical Failure at PTE: 27 (8.2) n (%)
  Clinical Failure or Indeterminate at PTE: 38 (11.6) n (%)
  Clinical Success at PTE: 291 (88.4) n (%)
  Difference (95% CI) in clinical success at PTE: 3.3% and 3.3 (−1.9, 8.5)^[4] %
  Indeterminate at PTE: 11 (3.3) n (%)
[6]; ITT, actual PORT Risk Class IV
  Clinical Failure at PTE: 11 (10.8) n (%)
  Clinical Failure or Indeterminate at PTE: 17 (16.7) n (%)
  Clinical Success at PTE: 85 (83.3) n (%)
  Indeterminate at PTE: 6 (5.9) n (%)
[7]
  Clinical Success n (%): 15 (83.3) n (%)
[8]
  Clinical Success n (%): 66 (94.3) n (%)
[9]
  Difference (95% CI) in Early Clinical Success rate, Compound 1 minus moxifloxacin: −1.6% and −1.6 (−7.1, 3.8) %
[9]; 72-120 h after first infusion
  Early Clinical Response: Clinical Failure: 49 (12.7) n (%)
  Early Clinical Response: Clinical Failure or Indeterminate: 73 (18.9) n (%)
  Early Clinical Response: Clinical Success: 313 (81.1) n (%)
  Early Clinical Response: Indeterminate: 24 (6.2) n (%)
[10]
  Clinical Success n (%): 25 (89.3) n (%)
[11]; Day 1
  exposure (dose-normalized AUC0-24) as % of that predicted if perfectly dose-proportional: 76%
[11]; Day 5
  exposure (dose-normalized AUC0-24) as % of that predicted if perfectly dose-proportional: 88%
[11]; Day 1, 300 mg
  Cmax/Dose Geometric LS Means: 2.09 ng/mL/mg
[11]; Day 1, 450 mg
  Cmax/Dose Geometric LS Means: 1.81 ng/mL/mg
[11]; Day 1, 600 mg
  Cmax/Dose Geometric LS Means: 1.54 ng/mL/mg
[11]; Day 5, 300 mg
  Cmax/Dose Geometric LS Means: 2.62 ng/mL/mg
[11]; Day 5, 450 mg
  Cmax/Dose Geometric LS Means: 2.32 ng/mL/mg
[11]; Day 5, 600 mg
  Cmax/Dose Geometric LS Means: 2.11 ng/mL/mg
[11]; all tested dose levels
  systemic exposure on Day 5 higher than on Day 1: ~50%
[11]; 300 mg
  AUC(0-t): 9270 ng·h/mL
[11]; 450 mg
  AUC(0-t): 8980 ng·h/mL
[12]
  Clinical Success n (%): 35 (94.6) n (%)
[13]
  Clinical Success n (%): 26 (81.3) n (%)
[14]; Streptococcus pneumoniae MDRSP, N1 = 7 (Compound 1), 6 (Moxifloxacin)
  Clinical Success n (%): 7 (100.0) n (%)
[14]; Streptococcus pneumoniae Macrolide Resistant, N1 = 10 (Compound 1), 5 (Moxifloxacin)
  Clinical Success n (%): 10 (100.0) n (%)
[14]; Streptococcus pneumoniae PSSP, N1 = 26 (Compound 1), 22 (Moxifloxacin)
  Clinical Success n (%): 23 (88.5) n (%)
[14]; baseline pathogen Streptococcus pneumoniae, N1 = 43 (Compound 1), 34 (Moxifloxacin)
  Clinical Success n (%): 37 (86.0) n (%)
[15]
  Clinical Success n (%): 4 (100.0) n (%)
